Read-outs that look alike come from different tables or passages of the source.
How the values were obtained:
Type in all cases: cell-based
[1] = tested on: Staphylococcus aureus ATCC25923; test: Broth microdilution MIC in Mueller Hinton broth
[2] = tested on: Staphylococcus aureus ATCC33591; test: Broth microdilution MIC in Mueller Hinton broth; conditions: Staphylococcus aureus
[3] = tested on: Staphylococcus aureus Clinical/MRSA; test: Broth microdilution MIC in Mueller Hinton broth; conditions: Staphylococcus aureus, MRSA, read-out: Minimum Inhibitory Concentration (MIC) Staphylococcus aureus Clinical/MRSA
[4] = tested on: Bacillus cereus ATCC14579; test: Broth microdilution MIC in Mueller Hinton broth; conditions: Bacillus cereus
[5] = tested on: Listeria monocytogenes ATCC7644; test: Broth microdilution MIC in Mueller Hinton broth; conditions: Listeria monocytogenes
[6] = tested on: Enterococcus faecalis ATCC29212; test: Broth microdilution MIC in Mueller Hinton broth; conditions: Enterococcus faecalis
[7] = tested on: Escherichia coli ATTC25922; test: Broth microdilution MIC in Mueller Hinton broth; conditions: Escherichia coli
[8] = tested on: Salmonella enterica food isolate; test: microbe, parasite or virus in culture; conditions: Salmonella enterica, read-out: Minimum Inhibitory Concentration (MIC) Salmonella enterica food isolate
[9] = tested on: Pseudomonas aeruginosa ATTC27853; test: Broth microdilution MIC in Mueller Hinton broth; conditions: Pseudomonas aeruginosa
[10] = tested on: Staphylococcus aureus ATCC 25923; test: MIC in cation-adjusted Mueller Hinton broth (CA-MHB)
Method: A representative bacterial strain, Staphylococcus aureus ATCC 25923, was grown overnight in Mueller Hinton broth (MHB). The following day, the culture was diluted in tempered MHB and allowed to grow at 37 °C with constant shaking of 220 rpm. Once the bacterial culture reached the exponential growth phase (OD600 = 0.3–0.5), it was diluted in the cation-adjusted Mueller Hinton broth (CA-MHB) containing MgCl2 (10 mM) to the final cell count of 5 × 10^5 CFU/mL. The previously prepared 96-well plate contained twofold serial dilutions of the compounds to be tested, dissolved in CA-MHB, in the concentrations range of 125 µM to 0.12 µM. Then, 50 µL of the bacterial cells diluted in CA-MHB was pipetted in each well of the plate and incubated overnight at 37 °C with constant shaking at 220 rpm. The next day, the minimum inhibitory concentration (MIC) was determined as the lowest concentration of the compound that prevented supposed bacterial growth in the wells. Visually determined results of antibacterial activity were confirmed by the addition of 20 µL 2-(4-iodophenyl)-3-(4-nitrophenyl)-5-phenyltetrazolium chloride (INT) reagent (6 mg/mL). The MIC value of a drug in CA-MHB containing NaCl (85 mM) was determined using the same experimental technique.

[11] = tested on: Staphylococcus aureus ATCC 25923; test: MIC in Dulbecco's Modified Eagle Medium (DMEM)
Method: The overnight culture of Staphylococcus aureus ATCC 25923 was diluted in fresh Mueller Hinton broth (MHB) and placed in an orbital shaker incubator (Gallenkamp, Cambridge, UK) at 37 °C and 220 rpm. Once the culture reached the exponential growth phase (OD600 = 0.3–0.5), cells were centrifuged (Heraeus, Biofuge primo R, Hanau, Germany) at room temperature at a speed of 4000× g. The cell pellet was resuspended in tempered Dulbecco’s Modified Eagle Medium (DMEM) to a final concentration of 5 × 10^5 CFU/mL. Then, 50 µL of as-prepared cells were added to a 96-well plate containing twofold serial dilutions of tested compounds in DMEM medium in the range of concentrations from 125 µM to 0.12 µM. The minimum inhibitory concentration (MIC) was visually assessed the next day. The MIC was determined as the lowest concentration of the substance at which no apparent bacterial growth was seen.

[12] = MHB, read-out: Minimum Inhibitory Concentration (MIC) Staphylococcus aureus ATCC25923
[13] = Staphylococcus aureus, ATCC25923, MHB, read-out: Minimum Inhibitory Concentration (MIC) Staphylococcus aureus ATCC25923
[14] = ATCC33591, MHB, read-out: Minimum Inhibitory Concentration (MIC) Staphylococcus aureus ATCC33591
[15] = ATCC14579, MHB, read-out: Minimum Inhibitory Concentration (MIC) Bacillus cereus ATCC14579
[16] = ATCC7644, MHB, read-out: Minimum Inhibitory Concentration (MIC) Listeria monocytogenes ATCC7644
[17] = ATCC29212, MHB, read-out: Minimum Inhibitory Concentration (MIC) Enterococcus faecalis ATCC29212
[18] = ATTC25922, MHB, read-out: Minimum Inhibitory Concentration (MIC) Escherichia coli ATTC25922
[19] = ATTC27853, MHB, read-out: Minimum Inhibitory Concentration (MIC) Pseudomonas aeruginosa ATTC27853
[20] = ATCC25923, cation-adjusted MHB, S. aureus ATCC 25923, read-out: MIC CA-MHB
[21] = ATCC25923, Dulbecco's Modified Eagle Medium, S. aureus ATCC 25923, read-out: MIC DMEM
[22] = Staphylococcus aureus, ATCC25923, read-out: Minimum Inhibitory Concentration (MIC) Staphylococcus aureus ATCC25923
[23] = ATCC33591, read-out: Minimum Inhibitory Concentration (MIC) Staphylococcus aureus ATCC33591
[24] = ATCC14579, read-out: Minimum Inhibitory Concentration (MIC) Bacillus cereus ATCC14579
[25] = ATCC7644, read-out: Minimum Inhibitory Concentration (MIC) Listeria monocytogenes ATCC7644
[26] = ATCC29212, read-out: Minimum Inhibitory Concentration (MIC) Enterococcus faecalis ATCC29212
[27] = ATTC25922, read-out: Minimum Inhibitory Concentration (MIC) Escherichia coli ATTC25922
[28] = ATTC27853, read-out: Minimum Inhibitory Concentration (MIC) Pseudomonas aeruginosa ATTC27853

Measured: MIC

CCCCCCCCCCCC[N+]12CCC(CC1)C(NC(=O)c1ccccc1)C2 (stereo not drawn) [QBn-C12]
25 µM: [10]; [20]
31 µM: [5]; [16] | [6]; [17]
3 µM: [11]; [21]
> 125 µM: [9]; [19]
63 µM: [1]; [12] | [1]; [13] | [2]; [14] | [3] | [4]; [15] | [7]; [18] | [8]

CCCCCCCCCCCCCCCC(=O)NC1C[N+]2(C)CCC1CC2 (stereo not drawn) [QC16-Me]
8 µM: [5]; [25]
31 µM: [3]
6 µM: [11]; ATCC25923, read-out: MIC DMEM
> 125 µM: [8]; MHB | [9]; [28]
25 µM: [2]; [23]
> 100 µM: [4]; [24] | [7]; [27]
100 µM: [6]; [26]
16 µM: [1]; [12] | [1]; [22] | [10]; ATCC25923, read-out: MIC CA-MHB

CCCCCCCCCCCCCCCC[N+]12CCC(CC1)C(NC(=O)c1ccccc1)C2 (stereo not drawn) [QBn-C16]
6 µM: [10]; [20]
> 125 µM: [9]; [19]
4 µM: [5]; [16] | [6]; [17]
31 µM: [2]; [14] | [3] | [7]; [18]
3 µM: [11]; [21]
63 µM: [1]; [12] | [1]; [13] | [4]; [15] | [8]

CC(=O)NC1CN2CCC1CC2 (racemic) [QAc, (±)3-acetamidoquinuclidine]
> 100 µM: [1]; [22] | [2]; [23] | [3] | [4]; [24] | [5]; [25] | [6]; [26] | [7]; [27] | [8] | [9]; [28]

CCCCCCCCCCCC(=O)NC1C[N+]2(C)CCC1CC2 (stereo not drawn) [QC12-Me]
100 µM: [1]; [13] | [3] | [4]; [15] | [5]; [16] | [6]; [17] | [7]; [18]
> 125 µM: [2]; [23] | [8] | [9]; [28]

CCCCCCCCCCCCCCCC(=O)NC1CN2CCC1CC2 (stereo not drawn) [QC16]
125 µM: [5]; [16]
250 µM: [3]
100 µM: [2]; [14]
> 100 µM: [4]; [15] | [6]; [17] | [7]; [18] | [8] | [9]; [19]
62.5 µM: [1]; [13]

CCCCCCCCCCCCCCCC[N+]12CCC(CC1)C(NC(C)=O)C2 (stereo not drawn) [QAc-C16]
31 µM: [6]; [17]
> 125 µM: [1]; [22] | [2]; [23] | [3] | [4]; [24] | [7]; [27] | [8] | [9]; [28]
8 µM: [5]; [16]

C=CC[N+]12CCC(CC1)C(NC(=O)CCCCCCCCCCC)C2 (stereo not drawn) [QC12-Ally]
> 125 µM: [1]; [22] | [2]; [23] | [3] | [4]; [24] | [5]; [25] | [6]; [26] | [7]; [27] | [8] | [9]; [28]

NC1CN2CCC1CC2 (stereo not drawn) [QNH2, 3-aminoquinuclidine]
> 100 µM: [1]; [22] | [2]; [23] | [3] | [4]; [24] | [5]; [25] | [6]; [26] | [7]; [27] | [8] | [9]; [28]

O=C(NC1CN2CCC1CC2)c1ccccc1 (racemic) [QBn, (±)3-benzamidoquinuclidine]
> 100 µM: [1]; [13] | [2]; [14] | [3] | [4]; [15] | [5]; [16] | [6]; [17] | [7]; [18] | [8] | [9]; [19]

CCCCCCCCCCCC(=O)NC1CN2CCC1CC2 (stereo not drawn) [QC12]
> 100 µM: [1]; [13] | [3] | [4]; [15] | [6]; [17] | [7]; [18] | [8] | [9]; [19]
100 µM: [2]; [14] | [5]; [16]

CCCCCCCCCCCCCC[N+]12CCC(CC1)C(NC(C)=O)C2 (stereo not drawn) [QAc-C14]
> 125 µM: [1]; [22] | [2]; [23] | [3] | [4]; [24] | [7]; [27] | [8] | [9]; [28]
63 µM: [5]; [16] | [6]; [17]

CCCCCCCCCCCCCC(=O)NC1CN2CCC1CC2 (stereo not drawn) [QC14]
60 µM: [1]; [13]
25 µM: [4]; [15] | [5]; [16]
50 µM: [2]; [14] | [3] | [7]; [18]
17 µM: [6]; [17]
100 µM: [8]
> 100 µM: [9]; [19]

CCCCCCCCCCCC[N+]12CCC(CC1)C(NC(C)=O)C2 (stereo not drawn) [QAc-C12]
> 125 µM: [1]; [22] | [2]; [23] | [3] | [4]; [24] | [5]; [25] | [6]; [26] | [7]; [27] | [8] | [9]; [28]
